Strand notation (5' to 3'): a small letter for the sugar, then the base; units joined by * are phosphorothioate-linked, units joined directly phosphodiester-linked; [ ] holds rarer units or linkages, { } end groups; capitals alone tell only the bases. e = 2'-O-(2-methoxyethyl) (MOE); [5mC] = 5-methylcytosine; d = 2'-deoxy (DNA)
How the values were obtained:
[1] = test system: human PKK mRNA; assay: Dose-dependent antisense inhibition of human PKK in HepaRG cells, 0.19-5.00 uM (Example 5); type: cell-based
Procedure, shortened: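 HepaRG cells (20,000/well) were electroporated with antisense oligonucleotide at 0.19, 0.56, 1.67 and 5.00 μM and treated for about 16 hours. PKK mRNA was quantified by qRT-PCR with primer probe set RTS3454, normalised to RIBOGREEN total RNA, and IC50 was derived per oligonucleotide.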

[2] = test system: human PKK mRNA; assay: Antisense inhibition of human PKK mRNA in HepaRG cells, 5,000 nM (Example 2); type: cell-based
Procedure, shortened: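 HepaRG cells (20,000/well) electroporated with 5,000 nM MOE gapmer (phosphorothioate backbone, 5-methylcytosines) and harvested after ~24 h. PKK mRNA measured by qRT-PCR with primer probe set RTS3454, normalized to RIBOGREEN total RNA; percent inhibition versus untreated cells.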

[3] = HepaRG cells, electroporation, approximately 16 hours, Table 37
[4] = 4 point dose response, HepaRG cells, Table 37
[5] = Table 13, human PKK mRNA in HepaRG cells, 5-10-5 gapmers
[6] = HepaRG cells, electroporation, approximately 16 hours, Table 36
[7] = HepaRG cells, electroporation, approximately 16 hours, Table 38
[8] = Table 34, HepaRG, electroporation, ~16 h
[9] = HepaRG cells, electroporation, approximately 16 hours, Table 40

546739 (eA*eT*eT*e[5mC]*eG*dG*dT*dG*dT*d[5mC]*dT*dT*dT*dA*d[5mC]*eT*eG*eG*e[5mC]*eT; antisense) [compound 546739]
percent inhibition of PKK at 0.19 μM [1, 3]: 35% | percent inhibition of PKK at 0.56 μM [1, 3]: 55% | percent inhibition of PKK at 1.67 μM [1, 3]: 57% | percent inhibition of PKK at 5.00 μM [1, 3]: 79% | IC50 [1, 4]: 0.6 µM | percent inhibition of PKK mRNA, 0.19 μM ([1]; HepaRG cells, 0.19 μM antisense oligonucleotide): 4% | percent inhibition of PKK mRNA, 0.56 μM ([1]; HepaRG cells, 0.56 μM antisense oligonucleotide): 62% | percent inhibition of PKK mRNA, 1.67 μM ([1]; HepaRG cells, 1.67 μM antisense oligonucleotide): 84% | percent inhibition of PKK mRNA, 5.00 μM ([1]; HepaRG cells, 5.00 μM antisense oligonucleotide): 86% | IC50 ([1]; HepaRG cells, 0.19-5.00 μM): 0.6 µM | % inhibition [2, 5]: 89%

546826 (eA*eG*eT*eA*eT*d[5mC]*dA*d[5mC]*dT*dG*dT*dA*d[5mC]*dT*dA*eG*eT*eT*eT*e[5mC]; antisense) [compound 546826]
percent inhibition of PKK at 0.19 μM [1, 6]: 17% | percent inhibition of PKK at 0.56 μM [1, 6]: 40% | percent inhibition of PKK at 1.67 μM [1, 6]: 87% | percent inhibition of PKK at 5.00 μM [1, 6]: 97% | IC50 ([1]; 4 point dose response, HepaRG cells, Table 36): 0.7 µM | % inhibition [2, 5]: 90%

547636 (eG*eT*eA*eT*e[5mC]*dA*d[5mC]*dT*dG*dT*dA*d[5mC]*dT*dA*dG*eT*eT*eT*eT*e[5mC]; antisense) [compound 547636]
percent inhibition of PKK at 0.19 μM [1, 7]: 0% | percent inhibition of PKK at 0.56 μM [1, 7]: 24% | percent inhibition of PKK at 1.67 μM [1, 7]: 79% | percent inhibition of PKK at 5.00 μM [1, 7]: 94% | IC50 ([1]; 4 point dose response, HepaRG cells, Table 38): 1.1 µM | % inhibition ([2]; human PKK mRNA, HepaRG cells, 5-10-5 motif oligonucleotides targeting SEQ ID NO: 1 and 10): 86%

546304 (antisense e[5mC]*eT*eT*eT*eT*dA*dT*dT*dT*dG*dT*dG*dA*dG*dA*eA*eA*eG*eG*eT) [compound 546304]
percent inhibition of PKK at 0.19 μM [1, 3]: 0% | percent inhibition of PKK at 0.56 μM [1, 3]: 6% | percent inhibition of PKK at 1.67 μM [1, 3]: 51% | percent inhibition of PKK at 5.00 μM [1, 3]: 71% | IC50 [1, 4]: 2.1 µM | % inhibition ([2]; Table 9 experiment, HepaRG cells, 20,000 cells per well, electroporation with 5,000 nM antisense oligonucleotide, approx. 24 hours, PKK mRNA by RT-PCR (RTS3454), relative to untreated control cells): 94% | % inhibition ([2]; Table 10 experiment, HepaRG cells, 20,000 cells per well, electroporation with 5,000 nM antisense oligonucleotide, approx. 24 hours, PKK mRNA by RT-PCR (RTS3454), relative to untreated control cells): 86%

546253 (eG*eT*e[5mC]*eT*e[5mC]*dT*dT*dG*dG*d[5mC]*dA*dA*dA*d[5mC]*dA*eT*eT*e[5mC]*eA*e[5mC]; antisense) [compound 546253]
percent inhibition of PKK at 0.19 μM [1, 8]: 1% | percent inhibition of PKK at 0.56 μM [1, 8]: 13% | percent inhibition of PKK at 1.67 μM [1, 8]: 46% | percent inhibition of PKK at 5.00 μM [1, 8]: 81% | IC50 ([1]; Table 34, PKK mRNA, HepaRG, electroporation, ~16 h): 1.7 µM | % inhibition ([2]; Table 8, HepaRG cells, electroporation with 5,000 nM antisense oligonucleotide, approx. 24 hours, PKK mRNA by RT-PCR (RTS3454), relative to untreated control cells): 98%

548753 (antisense eT*e[5mC]*eA*e[5mC]*dT*dG*dT*dA*d[5mC]*dT*dA*dG*dT*dT*eT*e[5mC]*e[5mC]*eT) [compound 548753]
percent inhibition of PKK at 0.19 μM [1, 9]: 0% | percent inhibition of PKK at 0.56 μM [1, 9]: 23% | percent inhibition of PKK at 1.67 μM [1, 9]: 49% | percent inhibition of PKK at 5.00 μM [1, 9]: 84% | IC50 ([1]; 4 point dose response, HepaRG cells, Table 40): 1.5 µM | % inhibition ([2]; human PKK mRNA, HepaRG cells, 5,000 nM antisense oligonucleotide, Table 18): 82%
